Here are results for 1 cell line from the supplement of paper PMC10307832.

Assay in all cases: relative viability (nuclei count vs DMSO), 5 days (fraction); higher = more cells survive
Compound in one experiment: COc1cc(N2CCC(N3CCN(C)CC3)CC2)ccc1Nc1ncc(Cl)c(Nc2ccccc2S(=O)(=O)C(C)C)n1 [NVP-TAE684]
The procedure, abridged:
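Five library-drug doses, separated by factors of √10, were pinned into 1536-well plates holding lung cancer cell lines after an overnight stay at 37 °C. Cells were fixed, permeabilised and Hoechst-stained in one step after 5 days without medium change, then imaged at 4×. Viability compares treated-well with vehicle-well nuclei, counted in MetaXpress, as a median across plates. Passing plates had control CV below 25% and at least one doubling.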

Compound in experiment [1]: C1=CC=C2C(=C1)N=C(S2)C(C#N)C3=NC(=NC=C3)NCCC4=CN=CC=C4 + CC1(C)CCC(c2ccc(Cl)cc2)=C(CN2CCN(c3ccc(C(=O)NS(=O)(=O)c4ccc(N[C@H](CCN5CCOCC5)CSc5ccccc5)c(S(=O)(=O)C(F)(F)F)c4)cc3)CC2)C1 [Navitoclax] (partner 0.5 µM)
Summed up:
(§1)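 Lung cancer cell lines were pin-tool dosed in 1536-well plates on the day after seeding, with either a lone drug or a fixed anchor-drug dose plus five library-drug doses (not always all listed) in √10 steps. Nuclei were counted on 4× images after 5 days. Relative viability is the ratio of treated-well to vehicle-well nuclei counts, with each value a median of duplicate plates.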

Compound in the experiment “NVP-TAE684 + Decitabine”: COc1cc(N2CCC(N3CCN(C)CC3)CC2)ccc1Nc1ncc(Cl)c(Nc2ccccc2S(=O)(=O)C(C)C)n1 [NVP-TAE684] + Nc1ncn([C@H]2C[C@H](O)[C@@H](CO)O2)c(=O)n1 [Decitabine] (partner 2 µM)
The procedure, abridged: as §1

Compound in the experiment “NVP-TAE684 + Olaparib”: COc1cc(N2CCC(N3CCN(C)CC3)CC2)ccc1Nc1ncc(Cl)c(Nc2ccccc2S(=O)(=O)C(C)C)n1 [NVP-TAE684] + O=C(c1cc(Cc2n[nH]c(=O)c3ccccc23)ccc1F)N1CCN(C(=O)C2CC2)CC1 [Olaparib] (partner 8 µM)
The procedure, abridged:
as §1

Compound in the experiment “Vandetanib + Decitabine”: COc1cc2/c(=N/c3ccc(Br)cc3F)nc[nH]c2cc1OCC1CCN(C)CC1 [Vandetanib] + Nc1ncn([C@H]2C[C@H](O)[C@@H](CO)O2)c(=O)n1 [Decitabine] (partner 2 µM)
Summed up: as §1

Turning to UMC-11, the relative viability in the experiment with NVP-TAE684 (0.2 µM) is 1.04; in the experiment with NVP-TAE684 (0.6325 µM), 0.876; with NVP-TAE684 (2 µM), 0.465; in experiment [1] (first compound 0.005 µM) it was 0.28; in experiment [1] (first compound 0.01581 µM) it was 0.304; in experiment [1] (first compound 0.05 µM), 0.294. Besides, the relative viability in experiment [1] (first compound 0.1581 µM) was 0.307; in experiment [1] (first compound 0.5 µM) it was 0.306; with NVP-TAE684 + Decitabine (first compound 0.2 µM) it was 0.582; with NVP-TAE684 + Decitabine (first compound 0.6325 µM), 0.581; in the experiment with NVP-TAE684 + Decitabine (first compound 2 µM) it was 0.346; in the experiment with NVP-TAE684 + Olaparib (first compound 0.2 µM) it was 0.376. Besides, the relative viability was found to be 0.336 in the experiment with NVP-TAE684 + Olaparib (first compound 0.6325 µM); 0.228 with NVP-TAE684 + Olaparib (first compound 2 µM); 0.595 with Vandetanib + Decitabine (first compound 0.02 µM); 0.553 in the experiment with Vandetanib + Decitabine (first compound 0.06325 µM); 0.665 with Vandetanib + Decitabine (first compound 0.2 µM); 0.528 in the experiment with Vandetanib + Decitabine (first compound 0.6325 µM). The relative viability with Vandetanib + Decitabine (first compound 2 µM) turned out to be 0.614.
